Results filed as inconclusive are left out. The source made the active and inactive calls. No rule for the calls is given here.

This test has as its system Mycobacterium tuberculosis non-replicating, growth inhibition. Nature of the test: growth inhibition of non-replicating M. tuberculosis (AID 488890).
One may read the IC50 as the concentration at which inhibition is half-maximal. Turning to `CCCc1nnc(-c2ccc(OC)cc2)o1`, the IC50 was 1.24 µM.
Next, `Cc1ccc(-n2cc(CNCCn3nc(C)cc3C)c(-c3ccc(F)cc3)n2)cc1`: 6.05 µM.
For the compound `CCC(=O)Nc1nc2ccccc2n1Cc1ccc(C)cc1`, the IC50 was 20.5 µM (inactive).
With `CC(C)(C)c1cc(C(=O)N/N=C/c2ccc([N+](=O)[O-])s2)n[nH]1` the figure was 5.5 µM; with `CCCC(=O)N1CCC(Cc2ccccc2)CC1`, 3.47 µM.
Take `O=C(N/N=C/c1ccc([N+](=O)[O-])s1)c1ccncc1`: the 50% inhibitory concentration (IC50) was 1.77 µM.
With `COc1ccc(S(=O)(=O)N(C(C)=O)c2ccc(OC(C)=O)c3ccccc23)cc1[N+](=O)[O-]` the figure was 13.6 µM (inactive); with `Cc1cc2cc(CNC(=O)C3CCCC3)ccc2n1C`, 17.5 µM (inactive); with `Oc1ccccc1-c1nnc(COc2ccccc2)o1`, 11.2 µM (inactive).
Next, `CC(C)[C@H](NC(=O)c1ccc(Br)cc1)C(=O)NC1CCCCC1`: 1.37 µM.
With `COc1ccccc1/C=C/C=N/NC(=O)c1ccncc1` the figure was 1.08 µM.
Consider `CN(C)CCCN(C(=O)CCc1ccccc1)c1nc2ccc(Br)cc2s1`, for which the IC50 is 14.2 µM (inactive).
Next, `O=C(C/C=N\OCc1ccc([N+](=O)[O-])cc1)Nc1ccc(Cl)cc1`: 5.29 µM; `C#CCSc1nnc(-c2cccc3ccccc23)o1`: 3.46 µM; `O=C(Nc1nnc(C2=COCCO2)o1)c1ccc(Cc2ccccc2)cc1`: 30.6 µM (inactive).
Next, `CCSc1nc(O)c(C2OC(=O)c3c2ccc(OC)c3OC)c(=O)n1-c1ccccc1` (stereo not given): 13.3 µM (inactive); `Oc1ccc(F)c2cccnc12`: 1.61 µM; `O=C(NCc1ccccc1)c1cc2ccccc2oc1=O`: 43.8 µM (inactive).
With `O=C(OCn1ncc(Br)c(Br)c1=O)c1ccccc1Cl` the figure was 6.27 µM; with `CC(C)Cc1nnc(NC(=O)CCS(=O)(=O)c2ccc(Cl)cc2)s1`, 5.37 µM; with `Clc1ccc(-c2ccc(CNCc3ccccn3)o2)cc1`, 0.77 µM.
On to `O=C(Nc1cccc([N+](=O)[O-])c1)C1COc2ccccc2O1` (stereo not given), for which the IC50 is 21 µM (inactive).
With `COc1ccc(Nc2cc(C)nc(-n3nc(C)cc3C)n2)cc1` the figure was 4.02 µM; with `CC/C(=C\C=C\[C@@H]1C=C[C@@H]2CCC[C@H]2[C@@H]1C(=O)c1ccc[nH]1)[C@@H]1O[C@@H]([C@@H](C)C(=O)O)CC[C@@H]1C`, 3.28 µM; with `N#CC1=C(N)Oc2n[nH]c(-c3cccnc3)c2C1c1ccc([N+](=O)[O-])o1` (stereo not given), 5.62 µM.
Next, `CC(C)c1ccc(OCC(=O)NNC(=O)c2cnccn2)cc1`: 11.9 µM (inactive); `Cc1cccc(NC(=O)COC(=O)CCc2c[nH]c3ccccc23)c1`: 1.94 µM; `C/C(CC(=O)Nc1ccc(C)c(Cl)c1)=N\NC(=O)c1ccco1`: 28.8 µM (inactive).
With `O=C(COC(=O)CC1CCCC1)Nc1ccc(OC(F)F)cc1` the figure was 10.8 µM (inactive).
For `CCOC(=O)c1csc(-c2snnc2C)n1`, the IC50 was 5.09 µM.
With `Cn1cccc1/C=C1/C(=O)NC(=S)N(Cc2ccc(F)cc2)C1=O` the figure was 6.03 µM; with `Cc1ccc(Nc2ccccc2N)cc1`, 2.52 µM; with `Cn1c(-c2cccc([N+](=O)[O-])c2)cnc1NCc1cccc(F)c1`, 29.3 µM (inactive).
Consider `O=C(CCS(=O)(=O)c1ccc(Cl)cc1)Oc1ccc2c(c1)OCO2`, for which the IC50 is 22.7 µM (inactive).
With `Cc1ccc(C(=O)N/N=C\c2ccc([N+](=O)[O-])s2)cn1`, the IC50 is 3.36 µM.
Turning to `CCc1ccc(N2C(=O)NC(=O)/C(=C\C=C\c3ccco3)C2=O)cc1`, the IC50 was 10.9 µM (inactive).
Consider `O=C(COC(=O)COc1ccc(Nc2ccccc2)cc1)NCc1ccco1`, for which the IC50 is 10.3 µM (inactive).
With `CC(C)(C)OC(=O)NNc1c2ccccc2nc2ccccc12` the figure was 4.09 µM; with `CSc1ccc(NC(=O)Nc2cccn(Cc3ccccc3)c2=O)cc1`, 19.4 µM (inactive).
`COc1ccc(NC(=O)c2nc3ccccc3s2)cc1`: the IC50 was 9.36 µM.

For the origin of these results see PubChem BioAssay AID488890 (Southern Research Specialized Biocontainment Screening …, 2010).
